According to ChEMBL document CHEMBL1201862, “PubChem BioAssay data set” (2004):
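Compound exposure: 48 hours, 5 concentrations, 96-well plates. GI50 = concentration required for 50% inhibition of growth.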 The source made the active and inactive calls. Rule as the data show it: active = GI50 up to about 1.1 µM and inactive = higher.

Legend:
Test in all cases: NCI tumour cell line growth inhibition, 48 h
[1] = system: SN12C
[2] = system: SNB-19
[3] = system: RXF 393
[4] = system: HT-29
[5] = system: UO-31
[6] = system: K562
[7] = system: CAKI-1
[8] = system: SK-OV-3
[9] = system: HCC 2998
[10] = system: NCI-H460
[11] = system: IGROV-1
[12] = system: UACC-62
[13] = system: OVCAR-3
[14] = system: HOP-92
[15] = system: HL-60
[16] = system: SR

Measured: GI50

COc1ccc(C(=O)/C(=N/Nc2ccccc2)c2ccc(OC)cc2)cc1
inactive: [1] > 100 µM | [2] > 100 µM | [3] 31.9 µM | [4] 18.3 µM | [5] > 100 µM | [6] 20.4 µM | [7] > 100 µM | [8] 61.2 µM | [9] > 100 µM | [10] > 100 µM | [11] > 100 µM | [12] 13.3 µM

O=[N+]([O-])C(/C=N/Nc1ccccc1)/C=N/Nc1ccccc1
inactive: [13] > 100 µM | [1] > 100 µM | [2] > 100 µM | [3] > 100 µM | [14] > 100 µM | [4] > 100 µM | [5] > 100 µM | [6] > 100 µM | [7] > 100 µM | [8] > 100 µM | [9] > 100 µM | [15] > 100 µM | [10] > 100 µM | [11] > 100 µM | [12] > 100 µM

COc1ccc(CNC2=C(NC(C)=O)C(=O)c3ccccc3C2=O)cc1
inactive: [13] 8.07 µM | [1] 16.8 µM | [2] 25.5 µM | [3] 6.41 µM | [14] 6.56 µM | [4] 29.4 µM | [5] 9.53 µM | [6] 7.76 µM | [16] 14 µM | [8] 19.5 µM | [9] 48.4 µM | [15] 1.69 µM | [10] 15.2 µM | [11] 16.8 µM | [12] 7.73 µM

COc1ccc(/C=C2\CCC(C)(CN(C)C)C2=O)cc1OC (centres undefined)
inactive: [13] > 100 µM | [1] > 100 µM | [2] > 100 µM | [3] > 100 µM | [14] > 100 µM | [4] > 100 µM | [5] > 100 µM | [6] > 100 µM | [7] > 100 µM | [9] > 100 µM | [10] > 100 µM | [11] > 100 µM | [12] > 100 µM

CNC(=O)CN(CC(=O)O)C(=O)NC
inactive: [13] > 100 µM | [2] > 100 µM | [3] > 100 µM | [14] > 100 µM | [4] > 100 µM | [5] > 100 µM | [6] > 100 µM | [7] > 100 µM | [16] > 100 µM | [8] > 100 µM | [9] > 100 µM | [15] > 100 µM | [11] > 100 µM | [12] > 100 µM

COc1ccc(C2C(Cl)C(=O)N2n2cnc3ccccc3c2=O)cc1OC (centres undefined)
inactive: [13] 44.6 µM | [1] > 100 µM | [2] 52.4 µM | [3] 96.8 µM | [4] > 100 µM | [5] 22.3 µM | [6] > 100 µM | [7] > 100 µM | [16] 38.7 µM | [8] 76.4 µM | [9] > 100 µM | [15] 57.7 µM | [10] 81.1 µM | [11] 74.1 µM | [12] 74.1 µM

C[P+](C)(CC(F)(F)F)c1ccccc1
inactive: [13] > 100 µM | [1] > 100 µM | [2] > 100 µM | [3] > 100 µM | [4] > 100 µM | [5] > 100 µM | [6] > 100 µM | [16] > 100 µM | [8] > 100 µM | [9] > 100 µM | [15] > 100 µM | [10] > 100 µM | [11] > 100 µM | [12] > 100 µM

N#CCN1CCOCCOCCN(CC#N)CCOCCOCC1
inactive: [13] > 100 µM | [1] > 100 µM | [2] > 100 µM | [3] > 100 µM | [14] > 100 µM | [4] > 100 µM | [5] > 100 µM | [6] > 100 µM | [7] > 100 µM | [16] > 100 µM | [9] > 100 µM | [15] > 100 µM | [10] > 100 µM | [11] > 100 µM | [12] > 100 µM

COc1cc2c(cc1OC)c1c(OC)c(OC)cc3c1c1c2sc(=S)n1CC3
inactive: [13] 55.5 µM | [1] 64.6 µM | [2] 67.1 µM | [3] 89.1 µM | [14] > 100 µM | [4] 50.2 µM | [5] > 100 µM | [6] 21.6 µM | [7] > 100 µM | [8] > 100 µM | [9] 53.1 µM | [15] 26.9 µM | [10] 42.7 µM | [11] > 100 µM | [12] 24.4 µM

C#CC1/C(=C\C(=O)OC)CCCC1O (centres undefined)
inactive: [13] > 100 µM | [1] > 100 µM | [2] > 100 µM | [3] > 100 µM | [14] > 100 µM | [4] > 100 µM | [5] > 100 µM | [6] > 100 µM | [7] > 100 µM | [16] > 100 µM | [8] > 100 µM | [9] > 100 µM | [15] > 100 µM | [10] > 100 µM | [11] > 100 µM | [12] > 100 µM

COc1cc(OC)c2c(=O)c3c([N+](=O)[O-])cccc3n(C)c2c1
inactive: [13] > 100 µM | [1] > 100 µM | [2] > 100 µM | [3] > 100 µM | [14] > 100 µM | [4] > 100 µM | [5] > 100 µM | [6] > 100 µM | [7] > 100 µM | [16] > 100 µM | [8] > 100 µM | [9] > 100 µM | [15] > 100 µM | [10] > 100 µM | [11] > 100 µM | [12] > 100 µM

CC(=O)Oc1cc2c(cc1OC(C)=O)C1(C)CCC2(C)c2cc(OC(C)=O)c(OC(C)=O)cc21
inactive: [13] 10.2 µM | [1] 40.3 µM | [2] 4.75 µM | [3] 40.7 µM | [14] 6.9 µM | [4] 4.75 µM | [5] 23.4 µM | [6] 5.6 µM | [7] 8.55 µM | [8] 29.2 µM | [9] 25.1 µM | [15] 4.13 µM | [10] 20.8 µM | [11] 26.7 µM | [12] 13.2 µM

CC(C)N1CN(C(C(=O)N[C@@H]2C(=O)N3C2SC(C)(C)C3C(=O)O)c2ccccc2)CSC1=S (some centres undefined)
inactive: [13] > 100 µM | [1] > 100 µM | [2] > 100 µM | [14] > 100 µM | [4] 96.6 µM | [5] > 100 µM | [6] 30.6 µM | [7] > 100 µM | [8] > 100 µM | [15] > 100 µM | [10] 43.7 µM | [11] > 100 µM | [12] > 100 µM

COc1ccc2n[se]nc2c1
inactive: [1] > 100 µM | [2] 69.2 µM | [3] 48.4 µM | [4] > 100 µM | [5] 59.3 µM | [6] > 100 µM | [7] > 100 µM | [8] 46.3 µM | [9] 38.6 µM | [15] > 100 µM | [11] 38.9 µM | [12] > 100 µM

CCC(=O)C12OC3OC(C)(C)OC3C1OC(C)(C)O2 (centres undefined)
inactive: [13] > 100 µM | [1] > 100 µM | [2] > 100 µM | [3] > 100 µM | [14] > 100 µM | [4] > 100 µM | [5] > 100 µM | [6] > 100 µM | [7] > 100 µM | [16] > 100 µM | [8] > 100 µM | [9] > 100 µM | [15] > 100 µM | [10] > 100 µM | [11] > 100 µM | [12] > 100 µM

O=C1CCCC1NC(=O)C(F)(F)F (centres undefined)
inactive: [13] > 100 µM | [1] > 100 µM | [2] > 100 µM | [3] > 100 µM | [14] > 100 µM | [4] > 100 µM | [5] > 100 µM | [6] > 100 µM | [7] > 100 µM | [8] > 100 µM | [15] > 100 µM | [10] > 100 µM | [11] > 100 µM | [12] > 100 µM

O=C(O)CN(c1ccccc1)S(=O)(=O)c1ccccc1[N+](=O)[O-]
inactive: [13] > 100 µM | [1] > 100 µM | [2] > 100 µM | [3] > 100 µM | [14] > 100 µM | [4] > 100 µM | [5] > 100 µM | [6] > 10 µM | [7] > 100 µM | [8] > 100 µM | [15] > 100 µM | [10] > 100 µM | [11] > 100 µM | [12] > 100 µM

COc1cccc(/C=C2\CCC(CCN(C)C)(C3=CCCC3)C2=O)c1 (centres undefined)
inactive: [13] 17.3 µM | [1] 14.9 µM | [2] 16.8 µM | [3] 8.73 µM | [14] 12.3 µM | [4] 13.8 µM | [5] 13.6 µM | [6] 15.5 µM | [7] 12.3 µM | [16] 35.5 µM | [9] 16.7 µM | [10] 15.8 µM | [11] 15.8 µM | [12] 15.4 µM

CN1CCN(CN2C(=O)C3C4C=CC(C3C2=O)C2C3C(=O)N(CN5CCN(C)CC5)C(=O)C3C42)CC1 (centres undefined)
inactive: [13] 21.4 µM | [1] 20.3 µM | [3] 22.9 µM | [4] 33.4 µM | [5] 30.3 µM | [6] 26.9 µM | [16] 16.4 µM | [9] 34.7 µM | [10] 16.1 µM | [11] 34.2 µM | [12] 22.2 µM
